As usually defined, the GI50 is the concentration giving 50% growth inhibition.

Seven compounds from ChEMBL document CHEMBL1201862, “PubChem BioAssay data set” (2004) can be followed below.

Test systems include SK-MEL-28; HOP-92; DU-145; MDA-MB-231; Hs-578T; A498; UO-31; SF-268; SK-MEL-2; HL-60; COLO 205; SW-620; NCI-H226; LOX IMVI; CCRF-CEM; HCC 2998; HT-29; UACC-257; HCT-116; SK-MEL-5.
Holding throughout (experiment): DTP human tumour cell line panel, 48 h

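48-hour exposure; five concentrations; linearly interpolated endpoints. Here, GI50 denotes the concentration required for 50% inhibition of growth.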 Activity calls are given as the source filed them. No stated cut-off is given here; in the data, active = GI50 up to about 1.1 µM and inactive = higher.

For `CCOC(=O)c1cc([N+](=O)[O-])cc([N+](=O)[O-])c1Sc1[nH]cnc2ncnc1-2`, the GI50 is 3.13 µM (inactive) in the assay with SK-MEL-28; 0.771 µM (active) with HOP-92; 1.31 µM (inactive) with DU-145; 7.01 µM (inactive) in the assay with MDA-MB-231; 6.92 µM (inactive) in the assay on Hs-578T; 12.2 µM (inactive) in the assay on A498. Besides, the GI50 is 1.75 µM (inactive) in the assay on UO-31; 3.32 µM (inactive) with SF-268; 2.93 µM (inactive) in the assay with SK-MEL-2; 1.94 µM (inactive) in the assay on HL-60; 2.17 µM (inactive) in the assay with COLO 205; 2.42 µM (inactive) with SW-620. In addition, the GI50 with NCI-H226 is 24.1 µM (inactive); in the assay with LOX IMVI, 0.454 µM (active); in the assay with CCRF-CEM, 0.462 µM (active); in the assay with HCC 2998, 11.9 µM (inactive); with HT-29, 2.37 µM (inactive); with UACC-257, 6.21 µM (inactive). Moreover, the GI50 in the assay with HCT-116 is 2.12 µM (inactive); in the assay with SK-MEL-5, 5.94 µM (inactive).

Consider `Cc1cc(NS(=O)(=O)c2ccc(NC(=O)c3ccc4nc5ccccc5c(Nc5ccc(S(N)(=O)=O)cc5)c4c3)cc2)no1`, for which the GI50 is 21 µM (inactive) with SK-MEL-28; 24.6 µM (inactive) in the assay with HOP-92; 48.3 µM (inactive) in the assay on DU-145; 24 µM (inactive) in the assay on MDA-MB-231; 31.9 µM (inactive) in the assay with Hs-578T; 55.5 µM (inactive) in the assay on A498. Besides, the GI50 was 20.1 µM (inactive) in the assay on UO-31; 30.5 µM (inactive) in the assay with SF-268; 23.9 µM (inactive) in the assay on SK-MEL-2; 22.7 µM (inactive) with HL-60; 20.6 µM (inactive) in the assay on COLO 205; 28.1 µM (inactive) in the assay with SW-620. In addition, the GI50 in the assay on NCI-H226 is > 100 µM (inactive); in the assay with LOX IMVI, 13.6 µM (inactive); with CCRF-CEM, 22.6 µM (inactive); in the assay on HCC 2998, 38.9 µM (inactive); in the assay with HT-29, 28.6 µM (inactive); in the assay on UACC-257 it was 22 µM (inactive). Further, the GI50 in the assay with HCT-116 is 24.8 µM (inactive); in the assay with SK-MEL-5 it was 25.1 µM (inactive).

Take `CCn1c2ccc(C(=O)CCCN(C)C)cc2c2cc(C(=O)CCCN(C)C)ccc21`: the GI50 in the assay on SK-MEL-28 is 5.66 µM (inactive); in the assay with HOP-92, 3.03 µM (inactive); in the assay on DU-145, 2.52 µM (inactive); with MDA-MB-231 it was 0.851 µM (active); in the assay with Hs-578T, 2.32 µM (inactive); in the assay on A498, 1.32 µM (inactive). In addition, the GI50 with UO-31 was 3.48 µM (inactive); with SF-268, 1.75 µM (inactive); with SK-MEL-2 it was 2.25 µM (inactive); in the assay with HL-60 it was 1.75 µM (inactive); with COLO 205 it was 1.06 µM (active); with SW-620 it was 0.53 µM (active). Moreover, the GI50 is 2.74 µM (inactive) with NCI-H226; 1.12 µM (active) in the assay with LOX IMVI; 0.395 µM (active) in the assay on CCRF-CEM; 1.69 µM (inactive) with HCC 2998; 0.509 µM (active) with HT-29; 3.44 µM (inactive) in the assay with UACC-257. Also, the 50% growth inhibitory concentration (GI50) in the assay on HCT-116 was 0.593 µM (active); in the assay on SK-MEL-5 it was 4.69 µM (inactive).

In the case of `CC(C)(C)C1CCC2c3c([nH]c4ccccc34)C3C(=O)N(c4cccc(Cl)c4)C(=O)C3C2C1` (stereo not given), the GI50 in the assay on SK-MEL-28 is 14.2 µM (inactive); with HOP-92, 5.05 µM (inactive); with DU-145, 11.7 µM (inactive); with MDA-MB-231, 14.2 µM (inactive); with Hs-578T it was 23.7 µM (inactive); in the assay with A498, 22.6 µM (inactive). In addition, the GI50 in the assay with UO-31 was 9.12 µM (inactive); in the assay on SF-268, 13 µM (inactive); in the assay with SK-MEL-2, 17 µM (inactive); in the assay on HL-60, 3.01 µM (inactive); in the assay with COLO 205, 12 µM (inactive); in the assay with SW-620, 9.62 µM (inactive). The GI50 was 19 µM (inactive) in the assay with NCI-H226; 7.48 µM (inactive) with LOX IMVI; 4.3 µM (inactive) with CCRF-CEM; 3.72 µM (inactive) in the assay on HCC 2998; 6.38 µM (inactive) in the assay on HT-29; 9.33 µM (inactive) in the assay with UACC-257. In addition, the GI50 in the assay on HCT-116 is 6.3 µM (inactive); with SK-MEL-5 it was 13.5 µM (inactive).

Take `Nc1ccc2c(=O)cc(-c3ccc(Br)s3)[nH]c2n1`: the GI50 with SK-MEL-28 is 3.08 µM (inactive); with HOP-92, 12.7 µM (inactive); in the assay on DU-145, 3.93 µM (inactive); with MDA-MB-231 it was 16.8 µM (inactive); in the assay with Hs-578T, 2.36 µM (inactive); in the assay with A498, 3.21 µM (inactive). The GI50 in the assay with UO-31 is 2.64 µM (inactive); with SF-268, 6.22 µM (inactive); in the assay on SK-MEL-2 it was > 100 µM (inactive); in the assay with HL-60 it was 2.41 µM (inactive); in the assay on COLO 205, 2.5 µM (inactive); with SW-620, 1.12 µM (active). Also, the GI50 with NCI-H226 was 2.15 µM (inactive); in the assay on LOX IMVI, 4.69 µM (inactive); in the assay with CCRF-CEM it was 2.37 µM (inactive); with HCC 2998, 3.39 µM (inactive); with HT-29 it was 4.74 µM (inactive); with UACC-257, > 27.7 µM (inactive). Moreover, the figures for the GI50 in the assay on HCT-116 and in the assay with SK-MEL-5 were 3.02 µM (inactive) and 1.35 µM (inactive), respectively.

As to `CC1=CC(=O)/C(=C/NC(=S)NCc2ccccc2)C(=O)O1`, the GI50 is > 100 µM (inactive) in the assay on SK-MEL-28; > 100 µM (inactive) in the assay on HOP-92; > 100 µM (inactive) with DU-145; > 100 µM (inactive) in the assay on MDA-MB-231; > 100 µM (inactive) in the assay on Hs-578T; 43.9 µM (inactive) in the assay with A498. Further, the GI50 is > 100 µM (inactive) with UO-31; > 100 µM (inactive) with SF-268; > 100 µM (inactive) in the assay with SK-MEL-2; 75.3 µM (inactive) in the assay on HL-60; > 100 µM (inactive) in the assay with COLO 205; > 100 µM (inactive) in the assay with SW-620. The GI50 in the assay with NCI-H226, with LOX IMVI, in the assay on CCRF-CEM, in the assay on HCC 2998, with HT-29 and with UACC-257 was > 100 µM (inactive) throughout. In addition, the GI50 in the assay with HCT-116 and with SK-MEL-5 was > 100 µM (inactive) each time.

Regarding `CCc1nc(N)nc(N)c1-c1ccc(NCCN)c([N+](=O)[O-])c1`, the GI50 with SK-MEL-28 was > 59.3 µM (inactive); with HOP-92 it was 27.6 µM (inactive); with DU-145, 20.5 µM (inactive); with MDA-MB-231, 20.2 µM (inactive); in the assay on Hs-578T, 89.1 µM (inactive); with A498, 17.7 µM (inactive). In addition, the GI50 in the assay on UO-31 is > 100 µM (inactive); with SF-268 it was 7.1 µM (inactive); in the assay with SK-MEL-2, 46.7 µM (inactive); with HL-60, 3.99 µM (inactive); in the assay with COLO 205 it was 14.2 µM (inactive); in the assay on SW-620, 5 µM (inactive). Moreover, the GI50 in the assay on NCI-H226 was > 96.8 µM (inactive); in the assay on LOX IMVI it was 4.24 µM (inactive); in the assay with CCRF-CEM, 4.41 µM (inactive); with HCC 2998, 10.4 µM (inactive); in the assay on HT-29, 6.11 µM (inactive); in the assay on UACC-257 it was 14.3 µM (inactive). Moreover, the results for the GI50 in the assay on HCT-116 and with SK-MEL-5 were 2.52 µM (inactive) and 9.79 µM (inactive), respectively.
